Data as given in patent publication US7858640B2, “Quinolines and their therapeutic use” (Pulmagen Therapeutics (Asthma) Limited, priority 2005, dated 2010).

What follows are molecules tested against T1, CRTH2 receptor (Homo sapiens, UniProt Q9Y5Y4) (assay: Radioligand binding assay ([3H]-PGD2 displacement, SPA)). Conditions: HEK cell membranes expressing the CRTH2 receptor, 1 nM [3H]-PGD2; Ki from IC50 by Cheng-Prusoff.
T1 sequence (Q9Y5Y4 1-395): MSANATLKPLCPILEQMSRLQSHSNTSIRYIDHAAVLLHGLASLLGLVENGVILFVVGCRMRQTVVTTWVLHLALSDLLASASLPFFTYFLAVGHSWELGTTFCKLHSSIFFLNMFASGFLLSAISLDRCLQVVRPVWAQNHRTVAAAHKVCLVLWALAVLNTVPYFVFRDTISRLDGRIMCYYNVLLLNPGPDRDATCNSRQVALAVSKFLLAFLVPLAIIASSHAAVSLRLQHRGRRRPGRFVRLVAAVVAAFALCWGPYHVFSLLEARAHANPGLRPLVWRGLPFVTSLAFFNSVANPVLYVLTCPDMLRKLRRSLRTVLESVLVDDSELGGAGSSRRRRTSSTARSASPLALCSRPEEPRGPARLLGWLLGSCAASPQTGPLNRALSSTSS
Design: expressed in transfected cells; host or cells: HEK cell membranes
Method: Radioligand Binding Assay
The receptor binding assay is performed in a final volume of 200 μL binding buffer [10 mM BES (pH 7.4), 1 mM EDTA, 10 mM manganese chloride, 0.01% BSA] and 1 nM [^3H]-PGD2 (Amersham Biosciences UK Ltd). Ligands are added in assay buffer containing a constant amount of DMSO (1% by volume). Total binding is determined using 1% by volume of DMSO in assay buffer and non-specific binding is determined using 10 μM of unlabeled PGD2 (Sigma). Human embryonic kidney (HEK) cell membranes (3.5 μg) expressing the CRTH2 receptor are incubated with 1.5 mg wheatgerm agglutinin SPA beads and 1 nM [^3H]-PGD2 (Amersham Biosciences UK Ltd) and the mixture incubated for 3 hours at room temperature. Bound [^3H]-PGD2 is detected using a Microbeta TRILUX liquid scintillation counter (Perkin Elmer). Compound IC50 value is determined using a 6-point dose response curve in duplicate with a semi-log compound dilution series. IC50 calculations are performed using Excel and XLfit (Microsoft), and this value is used to determine a Ki value for the test compound using the Cheng-Prusoff equation.

`Cc1c(Cc2ccc(S(C)(=O)=O)cc2Cl)c(OC(F)F)nc2c(Cl)ccc(OCC(=O)O)c12` [Example 40, [8-chloro-3-(2-chloro-4-methanesulfonylbenzyl)-2-difluoromethoxy-4-methylquinolin-5-yloxy]acetic Acid] and `Cc1c(Cc2ccc(S(C)(=O)=O)cc2Cl)c(OC(F)F)nc2c(F)ccc(OCC(=O)O)c12` [Example 46, [3-(2-chloro-4-methanesulfonylbenzyl)-2-difluoromethoxy-8-fluoro-4-methylquinolin-5-yloxy]acetic acid] cannot be ordered by Ki: less than 100 nM for the first, less than 100 nM for the second.

`CCc1nc2c(Cl)ccc(OCC(=O)O)c2c(CC)c1Cc1ccc(S(C)(=O)=O)cc1` [Example 41, [8-chloro-2,4-diethyl-3-(4-methanesulfonylbenzyl)quinolin-5-yloxy]acetic Acid] and `Cc1c(Cc2ccc(S(C)(=O)=O)cc2)c(C#N)nc2c(Cl)ccc(OCC(=O)O)c12` [Example 44, [8-chloro-2-cyano-3-(4-methanesulfonylbenzyl)-4-methylquinolin-5-yloxy]acetic Acid] cannot be ordered by Ki: less than 100 nM for the first, less than 100 nM for the second.

`CC(C)c1nc2c(Cl)ccc(OCC(=O)O)c2c(OC(F)F)c1Cc1ccc(S(C)(=O)=O)cc1` [Example 43, [8-chloro-4-difluoromethoxy-2-isopropyl-3-(4-methanesulfonylbenzyl)quinolin-5-yloxy]acetic Acid] and `CCc1nc2c(F)ccc(OCC(=O)O)c2c(OC(F)F)c1Cc1ccc(S(C)(=O)=O)cc1` [Example 45, [4-difluoromethoxy-2-ethyl-8-fluoro-3-(4-methanesulfonylbenzyl)-quinolin-5-yloxy]acetic Acid] cannot be ordered by Ki: less than 100 nM for the first, less than 100 nM for the second.

`CCc1nc2c(F)ccc(OCC(=O)O)c2c(OC(F)F)c1Cc1ccc(S(C)(=O)=O)cc1Cl` [Example 47, [3-(2-chloro-4-methanesulfonylbenzyl)-4-difluoromethoxy-2-ethyl-8-fluoroquinolin-5-yloxy]acetic acid] and `CCc1nc2c(F)ccc(OCC(=O)O)c2c(OC(F)F)c1Cc1ccc(Cl)cc1Cl` [Example 54, [3-(2,4-dichlorobenzyl)-4-difluoromethoxy-2-ethyl-8-fluoroquinolin-5-yloxy]acetic acid] cannot be ordered by Ki: less than 100 nM for the first, less than 100 nM for the second.

`Cc1c(Cc2ccc(S(C)(=O)=O)cc2)c(OC(F)F)nc2c(F)ccc(OCC(=O)O)c12` [Example 48, [2-difluoromethoxy-8-fluoro-3-(4-methanesulfonylbenzyl)-4-methylquinolin-5-yloxy]acetic acid] and `CCS(=O)(=O)c1ccc(Cc2c(OC(F)F)nc3c(F)ccc(OCC(=O)O)c3c2C)cc1` [Example 61, [2-difluoromethoxy-3-(4-ethanesulfonylbenzyl)-8-fluoro-4-methylquinolin-5-yloxy]acetic Acid] cannot be ordered by Ki: less than 100 nM for the first, less than 100 nM for the second.

`CCc1nc2c(F)ccc(OCC(=O)O)c2c(OC(F)F)c1Cc1ccc(Cl)cc1` [Example 49, [3-(4-chlorobenzyl)-4-difluoromethoxy-2-ethyl-8-fluoroquinolin-5-yloxy]acetic Acid] and `CCc1nc2c(F)ccc(OCC(=O)O)c2c(OC(F)F)c1Cc1ccc(F)cc1` [Example 50, [4-difluoromethoxy-2-ethyl-8-fluoro-3-(4-fluorobenzyl)quinolin-5-yloxy]acetic Acid] cannot be ordered by Ki: less than 100 nM for the first, less than 100 nM for the second.

`Cc1c(Cc2ccc(Cl)cc2Cl)c(OC(F)F)nc2c(F)ccc(OCC(=O)O)c12` [Example 51, [3-(2,4-dichlorobenzyl)-2-difluoromethoxy-8-fluoro-4-methylquinolin-5-yloxy]acetic Acid] and `Cc1c(Cc2ccc(Cl)cc2F)c(OC(F)F)nc2c(F)ccc(OCC(=O)O)c12` [Example 56, [3-(4-chloro-2-fluorobenzyl)-2-difluoromethoxy-8-fluoro-4-methylquinolin-5-yloxy]acetic Acid] cannot be ordered by Ki: less than 100 nM for the first, less than 100 nM for the second.

`Cc1c(Cc2ccc(F)cc2)c(OC(F)F)nc2c(F)ccc(OCC(=O)O)c12` [Example 52, [2-difluoromethoxy-8-fluoro-3-(4-fluorobenzyl)-4-methylquinolin-5-yloxy]acetic Acid] and `Cc1c(Cc2ccc(Cl)cc2)c(OC(F)F)nc2c(Cl)ccc(OCC(=O)O)c12` [Example 57, [8-chloro-3-(4-chlorobenzyl)-2-difluoromethoxy-4-methylquinolin-5-yloxy]acetic Acid] cannot be ordered by Ki: less than 100 nM for the first, less than 100 nM for the second.

`CCc1nc2c(F)ccc(OCC(=O)O)c2c(OC(F)F)c1Cc1ccc(F)cc1F` [Example 53, [3-(2,4-difluorobenzyl)-4-difluoromethoxy-2-ethyl-8-fluoroquinolin-5-yloxy]acetic Acid] and `CCc1nc2c(F)ccc(OCC(=O)O)c2c(OC(F)F)c1Cc1ccc(F)cc1Cl` [Example 58, [3-(2-chloro-4-fluorobenzyl)-4-difluoromethoxy-2-ethyl-8-fluoroquinolin-5-yloxy]acetic Acid] cannot be ordered by Ki: less than 100 nM for the first, less than 100 nM for the second.

`Cc1c(Cc2ccc(F)cc2F)c(OC(F)F)nc2c(F)ccc(OCC(=O)O)c12` [Example 55, [3-(2,4-difluorobenzyl)-2-difluoromethoxy-8-fluoro-4-methylquinolin-5-yloxy]acetic acid] and `Cc1c(Cc2ccc(F)cc2Cl)c(OC(F)F)nc2c(F)ccc(OCC(=O)O)c12` [Example 59, [3-(2-chloro-4-fluorobenzyl)-2-difluoromethoxy-8-fluoro-4-methylquinolin-5-yloxy]acetic Acid] cannot be ordered by Ki: less than 100 nM for the first, less than 100 nM for the second.

`CCc1nc2c(F)ccc(OCC(=O)O)c2c(OC(F)F)c1Cc1ccc(S(=O)(=O)CC)cc1` [Example 60, [4-difluoromethoxy-3-(4-ethanesulfonylbenzyl)-2-ethyl-8-fluoroquinolin-5-yloxy]acetic Acid] and `CCc1nc2c(F)ccc(OCC(=O)O)c2c(OC(F)F)c1Cc1ccc(S(=O)(=O)N2CCOCC2)cc1` [Example 64, {4-difluoromethoxy-2-ethyl-8-fluoro-3-[4-(morpholine-4-sulfonyl)benzyl]quinolin-5-yloxy}acetic acid] cannot be ordered by Ki: less than 100 nM for the first, less than 100 nM for the second.

`CCc1nc2c(Cl)ccc(OCC(=O)O)c2c(OC(F)F)c1Cc1ccc(Cl)cc1F` [Example 62, [8-chloro-3-(4-chloro-2-fluorobenzyl)-4-difluoromethoxy-2-ethylquinolin-5-yloxy]acetic Acid] and `CCc1nc2c(F)ccc(OCC(=O)O)c2c(OC(F)F)c1Cc1ccc(Cl)cc1F` [Example 63, [3-(4-chloro-2-fluorobenzyl)-4-difluoromethoxy-2-ethyl-8-fluoroquinolin-5-yloxy]acetic acid] cannot be ordered by Ki: less than 100 nM for the first, less than 100 nM for the second.

`CCc1nc2c(F)ccc(OCC(=O)O)c2c(OC(F)F)c1Cc1ccc(C(=O)N2CCCC2)cc1` [Example 65, {4-difluoromethoxy-2-ethyl-8-fluoro-3-[4-(pyrrolidine-1-carbonyl)benzyl]quinolin-5-yloxy}acetic Acid] and `CCc1nc2c(Cl)ccc(OCC(=O)O)c2c(OC(F)F)c1Cc1ccc(C(=O)N2CCCC2)cc1` [Example 71, {8-chloro-4-difluoromethoxy-2-ethyl-3-[4-(pyrrolidine-1-carbonyl)benzyl]quinolin-5-yloxy}acetic Acid] cannot be ordered by Ki: less than 100 nM for the first, less than 100 nM for the second.

`Cc1c(Cc2ccc(Cl)cc2)c(OC(F)F)nc2c(Cl)ccc(OC(C)(C)C(=O)O)c12` [Example 66, 2-[8-chloro-3-(4-chlorobenzyl)-2-difluoromethoxy-4-methylquinolin-5-yloxy]-2-methylpropionic Acid] and `Cc1c(Cc2ccc(Cl)cc2)c(OC(F)F)nc2c(Cl)ccc(OC(C)C(=O)O)c12` (centres unmarked) [Example 69, 2-[8-chloro-3-(4-chlorobenzyl)-2-difluoromethoxy-4-methylquinolin-5-yloxy]propionic Acid] cannot be ordered by Ki: less than 10000 nM for the first, less than 100 nM for the second.

`Cc1c(Cc2ccc(Cl)cc2Cl)c(OC(F)F)nc2c(F)ccc(OC(C)C(=O)O)c12` (centres unmarked) [Example 67, 2-[3-(2,4-dichlorobenzyl)-2-difluoromethoxy-8-fluoro-4-methylquinolin-5-yloxy]propionic Acid] and `Cc1c(Cc2ccc(Cl)cc2Cl)c(OC(F)F)nc2c(F)ccc(O[C@@H](C)C(=O)O)c12` [Example 68, (S)-2-[3-(2,4-dichlorobenzyl)-2-difluoromethoxy-8-fluoro-4-methylquinolin-5-yloxy]propionic Acid] cannot be ordered by Ki: less than 100 nM for the first, less than 100 nM for the second.

`Cc1c(Cc2ccc(Cl)cc2Cl)c(OC(F)F)nc2c(F)ccc(O[C@H](C)C(=O)O)c12` [Example 70, (R)-2-[3-(2,4-dichlorobenzyl)-2-difluoromethoxy-8-fluoro-4-methylquinolin-5-yloxy]propionic Acid] and `CCc1nc2c(F)ccc(OCC(=O)O)c2c(OC(F)F)c1Cc1ccc(C(=O)N2CCCC2)cc1Cl` [Example 72, {3-[2-chloro-4-(pyrrolidine-1-carbonyl)benzyl]-4-difluoromethoxy-2-ethyl-8-fluoroquinolin-5-yloxy}acetic Acid] cannot be ordered by Ki: less than 100 nM for the first, less than 100 nM for the second.
